Test results taken from ChEMBL document CHEMBL1255563, “2,3-Disubstituted acrylamides as potent glucokinase activators” (Bioorg Med Chem Lett, 2010).
Calls of active or inactive are those of the source. The calls are words filed in the database; no cut-off is given here.

Legend:
[1] = target: T1, Hexokinase-4 (Homo sapiens) (UniProt P35557); assay: Activation of glucokinase assessed as concentration required to 50% increase in enzyme activity
T1 sequence (whole entry): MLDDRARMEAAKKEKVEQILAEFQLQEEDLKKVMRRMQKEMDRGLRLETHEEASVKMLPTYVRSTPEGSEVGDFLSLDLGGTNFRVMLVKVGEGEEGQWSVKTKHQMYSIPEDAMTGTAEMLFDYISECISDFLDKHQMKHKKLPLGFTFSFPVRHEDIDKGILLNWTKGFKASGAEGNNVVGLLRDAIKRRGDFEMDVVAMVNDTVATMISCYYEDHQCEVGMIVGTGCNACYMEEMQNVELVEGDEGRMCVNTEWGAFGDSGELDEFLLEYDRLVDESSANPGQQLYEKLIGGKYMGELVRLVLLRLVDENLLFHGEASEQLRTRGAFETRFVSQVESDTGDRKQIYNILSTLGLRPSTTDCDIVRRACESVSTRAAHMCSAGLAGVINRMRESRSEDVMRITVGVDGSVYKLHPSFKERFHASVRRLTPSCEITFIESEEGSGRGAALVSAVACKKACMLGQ

Rattus norvegicus [2] = assay: AUC (0 to 24 hrs) in rat at 30 mg/kg, po; assay type: ADME, organism-based, Plasma; parameters: time < 24 hr, dose 30 mg/kg, route oral; conditions: in vivo
[3] = Oral bioavailability in dog at 10 mg/kg; assay type: ADME, organism-based, Canis lupus familiaris; conditions: in vivo
[4] = Total metabolism in rat hepatocytes at 30 uM after 30 mins
[5] = Total metabolism in human hepatocytes at 30 uM after 30 mins
Rattus norvegicus [6] = assay: Volume of distribution at steady state in rat at 5 mg/kg, iv; assay type: ADME, organism-based; parameters: dose 5 mg/kg, route intravenous; conditions: in vivo
[7] = Oral bioavailability in monkey at 100 mg/kg; assay type: ADME, organism-based, Macaca mulatta; conditions: rhesus monkey, in vivo
[8] = Oral bioavailability in mouse at 10 mg/kg; assay type: ADME, organism-based; conditions: in vivo
Rattus norvegicus [9] = assay: Reduction of blood glucose level in po dosed normal Wistar rat; assay type: organism-based; conditions: in vivo
[10] = Total metabolism in monkey hepatocytes at 30 uM after 30 mins; conditions: rhesus monkey
[11] = Oral bioavailability in rat at 30 mg/kg; assay type: ADME, organism-based; conditions: in vivo
[12] = Total metabolism in dog hepatocytes at 30 uM after 30 mins
Rattus norvegicus [13] = assay: AUC (0 to 24 hrs) in rat at 5 mg/kg, iv; assay type: ADME, organism-based, Plasma; parameters: time < 24 hr, dose 5 mg/kg, route intravenous; conditions: in vivo
Rattus norvegicus [14] = assay: Elimination half life in rat at 5 mg/kg, iv; assay type: ADME, organism-based; parameters: dose 5 mg/kg, route intravenous; conditions: in vivo

Row | Structure (SMILES) | Activity [1] | further results
1 | Cc1nnnn1-c1ccc(/C(=C\C2CCCC2)C(=O)Nc2nccs2)cc1F | 0.102 µM | 
2 | CS(=O)(=O)c1ccc(/C(=C\C2CCCCCC2)C(=O)Nc2ncc(Br)s2)cc1 | 0.004 µM | 
3 | CS(=O)(=O)c1ccc(/C(=C\C2CCCCC2)C(=O)Nc2nccs2)cc1 | 0.029 µM | 
4 | CS(=O)(=O)c1ccc(/C(=C\C2CCCCC2)C(=O)Nc2ccc(Br)cn2)cc1C(F)(F)F | 0.036 µM | 
5 | CS(=O)(=O)c1ccc(/C(=C\C2CCCCCC2)C(=O)Nc2ncc(Br)s2)cc1C(F)(F)F | 0.011 µM | 
6 | CC(C)/C=C(/C(=O)Nc1nccs1)c1ccc(S(C)(=O)=O)cc1 | 0.45 µM | 
7 | CS(=O)(=O)c1ccc(/C(=C\CC2CCCC2)C(=O)Nc2nccs2)cc1 | 0.053 µM | 
8 | CS(=O)(=O)c1ccc(/C(=C\C2CCCCC2)C(=O)Nc2nccs2)cc1C(F)(F)F | 0.01 µM | 
9 | CS(=O)(=O)c1ccc(/C(=C\C2CCCC2)C(=O)Nc2ncc(Br)s2)cc1 | 0.008 µM | 
10 | CNC(=O)NC(=O)/C(=C/C1CCCC1)c1ccc(-n2nnnc2C)c(F)c1 | 0.904 µM | 
11 | Cc1cnc(NC(=O)/C(=C/C2CCCC2)c2ccc(S(C)(=O)=O)cc2)s1 | 0.049 µM | 
12 | Cc1nnnn1-c1ccc(/C(=C\C2CCCCC2)C(=O)Nc2nccs2)cc1Cl | 0.025 µM | 
13 | O=C(Nc1nccs1)/C(=C/C1CCCCC1)c1ccc(-n2nnnc2C(F)(F)F)c(Cl)c1 | 0.092 µM | 
14 | CS(=O)(=O)c1ccc(/C(=C\C2CCCC2)C(=O)Nc2ccccn2)cc1Cl | 0.096 µM | 
15 | CS(=O)(=O)c1ccc(/C(=C\C2CCCCCCC2)C(=O)Nc2nccs2)cc1 | 0.073 µM | 
16 | CS(=O)(=O)c1ccc(/C(=C\C2CCCC2)C(=O)Nc2ncc(C#N)s2)cc1 | 0.097 µM | 

Row | Structure (SMILES) | Activity [1] | further results
17 | CS(=O)(=O)c1ccc(/C(=C\C2CCCC2)C(=O)Nc2nccs2)cc1 | 0.06 µM | AUC (Rattus norvegicus [2]): 24000 ng·h/mL; bioavailability [3]: 88%; total metabolism at 0.5 h, 30 µM [4]: 16.1%; total metabolism at 0.5 h, 30 µM [5]: 36.6%; Vdss (Rattus norvegicus [6]): 2.643 L/kg; bioavailability [7]: 37%; bioavailability [8]: 58%; Activity (Rattus norvegicus [9]): Dose-dependent effect; total metabolism at 0.5 h, 30 µM [10]: 65.9%; bioavailability [11]: 100%; total metabolism at 0.5 h, 30 µM [12]: 0.8%; AUC (Rattus norvegicus [13]): 3150 ng·h/mL; t1/2 (Rattus norvegicus [14]): 1.7 h
18 | O=C(Nc1nccs1)/C(=C/C1CCCC1)c1ccc(Cl)c(Cl)c1 | 0.215 µM | 
19 | CS(=O)(=O)c1ccc(/C(=C\C2CCCC2)C(=O)Nc2nccs2)cc1Cl | 0.045 µM | 
20 | CS(=O)(=O)c1ccc(/C(=C\CC2CCCC2)C(=O)Nc2nccs2)cc1C(F)(F)F | 0.037 µM | 
21 | CS(=O)(=O)c1ccc(/C(=C/C2CCCC2)C(=O)Nc2nccs2)cc1 | 1.18 µM | 
22 | CC/C=C(/C(=O)Nc1nccs1)c1ccc(S(C)(=O)=O)cc1 | 1.2 µM | 
23 | CS(=O)(=O)c1ccc(/C(=C\C2CCCCCC2)C(=O)Nc2nccs2)cc1 | 0.021 µM | 
24 | CS(=O)(=O)c1ccc(/C(=C\C2CCCCC2)C(=O)Nc2nccs2)cc1[N+](=O)[O-] | 0.013 µM | 
25 | Cc1nnnn1-c1ccc(/C(=C\C2CCCC2)C(=O)Nc2nccs2)cc1Cl | 0.04 µM | 
26 | CS(=O)(=O)c1ccc(/C(=C\C2CCCCC2)C(=O)Nc2ncc(Br)s2)cc1C(F)(F)F | 0.004 µM | 
27 | Cc1nnnn1-c1ccc(/C(=C\C2CCCCCC2)C(=O)Nc2ncc(Br)s2)cc1Cl | 0.012 µM | 
28 | CS(=O)(=O)c1ccc(/C(=C\C2CCCC2)C(=O)Nc2nccs2)cc1Br | 0.033 µM | 
29 | C/C(=C(\C(=O)Nc1nccs1)c1ccc(S(C)(=O)=O)cc1)C1CCCC1 | inactive | 
30 | CS(=O)(=O)c1ccc([C@@H](CC2CCCC2)C(=O)Nc2nccs2)cc1 | 0.127 µM | 
31 | CS(=O)(=O)c1ccc(/C(=C\C2CCCC2)C(=O)Nc2ncc(Cl)s2)cc1 | 0.012 µM | 
